According to patent US5482948A, “Pyridyl derivatives and pharmaceutical compositions comprising these compounds” (Dr. Karl Thomae GmbH, priority 1991, dated 1996):

Experiments:
thromboxane synthetase = target: T1, thromboxane synthetase (Homo sapiens, UniProt P24557); test: Inhibitory effect on thromboxane synthetase (TXB2 formation in human platelet suspension); format: cell-based; settings: 10 minutes at ambient temperature, then 14C-labelled arachidonic acid 10 minutes, read-out: Inhibition of thromboxane synthetase IC50
T1 construct: endogenous in cells; host or cells: human platelets (platelet-rich plasma passed through Sepharose 2B)
T1 sequence (P24557 1-533): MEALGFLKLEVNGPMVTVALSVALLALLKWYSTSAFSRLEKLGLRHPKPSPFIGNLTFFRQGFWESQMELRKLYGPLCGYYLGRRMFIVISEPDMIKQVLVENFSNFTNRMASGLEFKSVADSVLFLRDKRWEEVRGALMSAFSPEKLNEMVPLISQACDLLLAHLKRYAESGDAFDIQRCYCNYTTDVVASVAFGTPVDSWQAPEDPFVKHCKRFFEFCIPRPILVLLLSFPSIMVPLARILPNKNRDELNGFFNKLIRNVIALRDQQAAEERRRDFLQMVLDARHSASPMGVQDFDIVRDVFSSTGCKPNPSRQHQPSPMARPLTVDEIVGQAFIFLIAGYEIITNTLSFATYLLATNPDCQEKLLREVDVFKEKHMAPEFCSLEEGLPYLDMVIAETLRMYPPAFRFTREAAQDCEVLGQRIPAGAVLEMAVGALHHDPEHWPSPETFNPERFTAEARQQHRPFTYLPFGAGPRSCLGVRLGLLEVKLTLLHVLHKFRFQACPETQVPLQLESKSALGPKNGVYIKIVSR
Experimental: Determining the Inhibitory Effect on Thromboxane Synthetase
Venous human blood is anti-coagulated with 13 mM Na3 citrate and centrifuged for 10 minutes at 170×g. The supernatant platelet-rich plasma is passed through a Sepharose 2B column in order to remove the plasma proteins. Aliquots of the platelet suspension obtained are incubated with the test substance or with a solvent as control for 10 minutes at ambient temperature and after the addition of ^14 C-labelled arachidonic acid incubation is continued for a further 10 minutes. After this has been stopped with 50 μl of citric acid, extraction is carried out 3 times with 500 μl of ethyl acetate and the combined extracts are distilled off with nitrogen. The residue is taken up in ethyl acetate, placed on TLC film and separated with chloro-form:methanol:glacial acetic acid:water (90:8:1:0.8, v/v/v/v). The dried TLC films are placed on X-ray film for 3 days, the autoradiograms were developed and the active zones were marked on the film using the autoradiograms. After cutting out, the activity is measured in a scintillation counter and the inhibition of the formation of TXB2 is calculated. The IC50 is determined by linear interpolation.

thrombocyte aggregation = test: Antithrombotic activity: collagen-induced aggregation in platelet-rich plasma (Born and Cross); format: cell-based; settings: Homo sapiens, 10 min; platelet-rich plasma from healthy volunteers; incubated 10 minutes at 37° C.; 50% change in optical density; read-out: Inhibition of collagen-induced aggregation EC50
Experimental: The thrombocyte aggregation is measured using the method of Born and Cross (J. Physiol. 170, 397 (1964)) in platelet-rich plasma taken from healthy volunteers. To inhibit coagulation, the blood is mixed with 3.14% strength sodium citrate in a ratio by volume of 1:10.
Collagen-induced Aggregation
The pattern of decrease in the optical density of the platelet suspension is photometrically measured and recorded after the addition of the aggregation-triggering substance. The rate of aggregation is concluded from the angle of inclination of the density curve. The point on the curve where there is greatest light transmittance is used to calculate the "optical density".
The quantity of collagen used is as little as possible but sufficient to produce an irreversible reaction curve. Standard commercial collagen produced by Hormonchemie of Munich is used. Before the addition of the collagen the plasma is incubated for 10 minutes with the substance at 37° C.
From the measurements obtained an EC50 is determined by plotting a graph, and indicates a 50% change in the "optical density" in terms of the inhibition of aggregation.

Thromboxane = target: T2, Thromboxane (Homo sapiens, UniProt P21731); test: Thromboxane-antagonistic activity (displacement of 3H-labelled ligand on human platelets); format: binding; settings: human platelet suspension, 60 minutes at ambient temperature
T2 construct: endogenous in cells; host or cells: human platelets (platelet-rich plasma passed through Sepharose 2B)
T2 sequence (P21731 1-343): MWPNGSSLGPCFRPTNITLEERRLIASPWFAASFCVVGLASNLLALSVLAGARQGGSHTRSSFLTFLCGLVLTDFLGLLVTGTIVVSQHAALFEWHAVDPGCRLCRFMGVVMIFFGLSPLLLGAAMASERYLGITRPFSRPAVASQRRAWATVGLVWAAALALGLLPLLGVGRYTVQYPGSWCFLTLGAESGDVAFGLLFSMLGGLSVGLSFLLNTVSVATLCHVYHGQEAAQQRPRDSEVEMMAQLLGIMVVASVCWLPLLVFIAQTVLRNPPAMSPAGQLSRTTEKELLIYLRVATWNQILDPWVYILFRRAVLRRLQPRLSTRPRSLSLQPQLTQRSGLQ
Experimental: Thromboxane-antagonistic Activity
Venous human blood is anti-coagulated with 13 mM Na3 citrate and centrifuged for 10 minutes at 170×g. The supernatant platelet-rich plasma is passed through a Sepharose 2B column in order to remove the plasma proteins. Aliquots of the platelet suspension obtained are incubated with the test substance, the ligand (^3 H-labelled) and a marker (^14 C-labelled) for 60 minutes at ambient temperature and then centrifuged for 20 seconds at 10,000×g. The supernatant is removed and the pellet is dissolved in NaOH. The ^3 H activity in the supernatant corresponds to the free ligand, ^14 C gives the concentration of the marker. ^3 H in the pellet corresponds to the bound ligand whilst ^14 C is used to correct for the ligand in the extracellular space. After the process has been repeated, the displacement curve is determined from the binding values for different concentrations of the test substance and the IC50 is determined.

| SMILES | IC50 (thromboxane synthetase) | EC50 (thrombocyte aggregation) | IC50 (Thromboxane) |
| --- | --- | --- | --- |
| CC(C)(C)NC(=NS(=O)(=O)c1ccccc1)Nc1cccc(/C(=C\CCCC(=O)O)c2cccnc2)c1 [Example V, 5E-6-(3-(3-tert.butyl-2-phenylsulphonyl-guanidino)phenyl)-6-(3-pyridyl)hex-5-enoic acid] | 4 nM | 3000 nM | 55 nM |
| CC(C)(C)NC(=NC#N)NCCc1ccc(C(=CCCCC(=O)O)c2cccnc2)cc1 [U, E/Z-6-(4-(2-(2-cyano-3-tert.butyl-guanidino)ethyl)phenyl)-6-(3-pyridyl)hex-5-enoic acid] | 7 nM | 1200 nM | 50 nM |
| CC(C)(C)CNC(=C[N+](=O)[O-])Nc1cccc(/C(=C\CCCC(=O)O)c2cccnc2)c1 [T, 5E-6-(3-(1-neopentylamino-2-nitro-ethyleneamino)phenyl)-6-(3-pyridyl)hex-5-enoic acid] | 290 nM | 9500 nM | 280 nM |
